This is an account of results in PubChem BioAssay AID330 (DTP/NCI, 2004).

Where “and” joins values, the source holds several entries; their conditions need not be identical. Equal entries are not always repeated. Inconclusive results and toxic doses are left out.

The subject of this test is P388 leukemia ip, CD2F1 mice, survival T/C. Description: NCI In Vivo Anticancer Drug Screen. Data for tumor model P388 Leukemia (intraperitoneal) in CD2F1 (CDF1) mice. The following applies: endpoint: median survival time, higher = longer survival. In a few lines:
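Mice carrying the transplanted tumor received test compound or vehicle. Survival was recorded in each group, and the value is the treated-group measurement divided by that of the vehicle-treated control group.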

[1] abbreviates: dose: 25.0 mg/kg/injection, schedule: Q01DX009 (ip), vehicle: saline with Tween-80.
The mark [2] stands for this setting: dose: 50.0 mg/kg/injection, schedule: Q01DX009 (ip), vehicle: saline with Tween-80.
Where [3] appears, read: dose: 100.0 mg/kg/injection, schedule: Q04DX003 (ip), vehicle: saline with Tween-80.
The mark [4] stands for this setting: dose: 50.0 mg/kg/injection, schedule: Q01DX005 (ip), vehicle: saline with Tween-80.
[5] abbreviates: dose: 100.0 mg/kg/injection, schedule: Q01DX005 (ip), vehicle: saline with Tween-80.
Setting [6] is: dose: 200.0 mg/kg/injection, schedule: Q01DX005 (ip), vehicle: saline with Tween-80.
Where [7] appears, read: dose: 25.0 mg/kg/injection, schedule: Q04DX002 (ip), vehicle: saline with Tween-80.
The mark [8] stands for this setting: dose: 50.0 mg/kg/injection, schedule: Q04DX002 (ip), vehicle: saline with Tween-80.
Setting [9] is: dose: 100.0 mg/kg/injection, schedule: Q01DX009 (ip), vehicle: saline with Tween-80.
Setting [10] is: dose: 200.0 mg/kg/injection, schedule: Q01DX009 (ip), vehicle: saline with Tween-80.
The mark [11] stands for this setting: dose: 100.0 mg/kg/injection, schedule: Q01DX001 (ip), vehicle: Klucel (hydroxypropylcellulose) (HPC).
Where [12] appears, read: dose: 200.0 mg/kg/injection, schedule: Q01DX001 (ip), vehicle: Klucel (hydroxypropylcellulose) (HPC).
The mark [13] stands for this setting: dose: 400.0 mg/kg/injection, schedule: Q01DX001 (ip), vehicle: Klucel (hydroxypropylcellulose) (HPC).

Turning to `CCOC(=O)NC(=Nc1cccc(C(=O)c2ccc3nc(NC(=O)OCC)[nH]c3c2)c1)NC(=O)OCC`, the T/C reads like this: (dose: 15.0 mg/kg/injection, schedule: Q01DX005 (ip), vehicle: saline with Tween-80) 89 % of control; (dose: 30.0 mg/kg/injection, schedule: Q01DX005 (ip), vehicle: saline with Tween-80) 94 % of control.
Turning to `CCOC(=O)c1c(-c2ccccc2)noc1N`, the T/C is 100 % of control (dose: 25.0 mg/kg/injection, schedule: Q01DX005 (ip), vehicle: saline); 100 % of control (dose: 50.0 mg/kg/injection, schedule: Q01DX005 (ip), vehicle: saline); 98 % of control (dose: 100.0 mg/kg/injection, schedule: Q01DX005 (ip), vehicle: saline); 100 % of control (dose: 200.0 mg/kg/injection, schedule: Q01DX005 (ip), vehicle: saline); 104 % of control (dose: 400.0 mg/kg/injection, schedule: Q01DX005 (ip), vehicle: saline).
As for `Cc1cc(N)cc(N)c1O`, the T/C was 97 % of control (dose: 1.56 mg/kg/injection, schedule: Q01DX009 (ip), vehicle: saline); 95 % of control (dose: 3.12 mg/kg/injection, schedule: Q01DX009 (ip), vehicle: saline); 97 % of control (dose: 6.25 mg/kg/injection, schedule: Q01DX009 (ip), vehicle: saline).
In the case of `O=C(C[n+]1ccccc1)N/N=C/c1cccc([N+](=O)[O-])c1`, the T/C was 102 % of control (dose: 12.5 mg/kg/injection, schedule: Q01DX009 (ip), vehicle: saline with Tween-80); 99 % of control under setting [1]; 103 % of control under setting [2].
Regarding `COC(=O)CC(c1ccccc1)C1(c2ccc3c(c2)OCO3)SCCCS1` (stereo not drawn), the T/C is 92 % of control (dose: 100.0 mg/kg/injection, schedule: Q01DX001 (ip), vehicle: saline with Tween-80) and 90 % of control (dose: 200.0 mg/kg/injection, schedule: Q01DX001 (ip), vehicle: saline with Tween-80).
`C/C(=N/NC(=S)N1CCCCCC1)c1ncccn1`: the T/C is, setting by setting: (dose: 6.25 mg/kg/injection, schedule: Q01DX005 (ip), vehicle: saline with Tween-80) 104 % of control; (dose: 12.5 mg/kg/injection, schedule: Q01DX005 (ip), vehicle: saline with Tween-80) 115 % of control.
For the molecule `COc1ccc(OC)c(C(O)P(=O)(c2ccccc2)c2ccccc2)c1` (stereo not drawn), the T/C was 98 % of control (dose: 50.0 mg/kg/injection, schedule: Q01DX009 (ip), vehicle: Klucel (hydroxypropylcellulose) (HPC)); 93 % of control (dose: 100.0 mg/kg/injection, schedule: Q01DX009 (ip), vehicle: Klucel (hydroxypropylcellulose) (HPC)); 93 % of control (dose: 200.0 mg/kg/injection, schedule: Q01DX009 (ip), vehicle: Klucel (hydroxypropylcellulose) (HPC)).
With `C=CCCCCCCCCC(=O)N(CCOC)CCOC`, the T/C was 100 % of control (dose: 25.0 mg/kg/injection, schedule: Q04DX003 (ip), vehicle: saline with Tween-80); 100 % of control (dose: 50.0 mg/kg/injection, schedule: Q04DX003 (ip), vehicle: saline with Tween-80); 100 % of control under setting [3].
As to `O=[N+]([O-])c1ccc(N/N=C\c2c(Cl)n(-c3ccccc3)c3ccccc23)c([N+](=O)[O-])c1`, the T/C (dose: 25.0 mg/kg/injection, schedule: Q01DX005 (ip), vehicle: saline with Tween-80) is 106 % of control; the T/C under setting [4] was 100 % of control and 105 % of control; the T/C under setting [5] is 109 % of control and 117 % of control; the T/C under setting [3] is 90 % of control; the T/C under setting [6] is 109 % of control and 114 % of control; the T/C (dose: 400.0 mg/kg/injection, schedule: Q04DX003 (ip), vehicle: saline with Tween-80) was 88 % of control.
In the case of `COc1ccccc1C(O)c1cnc(C)n1Cc1ccccc1` (stereo not drawn), the T/C (dose: 60.0 mg/kg/injection, schedule: Q01DX005 (ip), vehicle: saline with Tween-80) was 98 % of control; the T/C (dose: 120.0 mg/kg/injection, schedule: Q01DX005 (ip), vehicle: saline with Tween-80) was 107 % of control; the T/C (dose: 240.0 mg/kg/injection, schedule: Q01DX005 (ip), vehicle: saline with Tween-80) is 97 % of control.
As for `COC(=O)C(C(=O)OC)=C(NS(=O)(=O)c1ccc(C)cc1)SC`, the T/C (dose: 12.5 mg/kg/injection, schedule: Q04DX002 (ip), vehicle: saline with Tween-80) was 100 % of control; the T/C under setting [7] is 100 % of control; the T/C under setting [8] was 109 % of control.
With `O=c1[nH]cc(Br)c2sccc12`, the T/C is 109 % of control under setting [1], 109 % of control under setting [2] and 109 % of control under setting [9].
Regarding `O=C(CS(=O)(=O)O)c1ccccc1`, the T/C reads like this: under setting [7], 100 % of control; under setting [8], 106 % of control; (dose: 100.0 mg/kg/injection, schedule: Q04DX002 (ip), vehicle: saline with Tween-80) 94 % of control and 97 % of control.
As to `C1SSCSSS1`, the T/C reads like this: under setting [2], 115 % of control; under setting [9], 117 % of control; under setting [10], 111 % of control.
With `NC(COC(=O)c1ccccc1)C(=O)O` (stereo not drawn), the T/C under setting [4] is 100 % of control, the T/C under setting [5] is 98 % of control and the T/C under setting [6] was 93 % of control.
In the case of `Cn1nnc(C(=O)O)n1`, the T/C runs as follows: (dose: 50.0 mg/kg/injection, schedule: Q01DX001 (ip), vehicle: saline) 100 % of control; (dose: 100.0 mg/kg/injection, schedule: Q01DX001 (ip), vehicle: saline) 100 % of control; (dose: 100.0 mg/kg/injection, schedule: Q04DX003 (ip), vehicle: saline) 103 % of control; (dose: 200.0 mg/kg/injection, schedule: Q01DX001 (ip), vehicle: saline) 101 % of control; (dose: 200.0 mg/kg/injection, schedule: Q04DX003 (ip), vehicle: saline) 103 % of control; (dose: 400.0 mg/kg/injection, schedule: Q04DX003 (ip), vehicle: saline) 100 % of control.
As to `NCCCNCCCCNC(=O)C(O)NC(=O)CCCCCCN=C(N)N` (stereo not drawn), the T/C (dose: 4.4 mg/kg/injection, schedule: Q01DX009 (ip), vehicle: other) is 193 % of control and 195 % of control and 198 % of control; the T/C (dose: 4.4 mg/kg/injection, schedule: Q01DX009 (ip), vehicle: saline) was 193 % of control and 194 % of control and 200 % of control; the T/C (dose: 4.5 mg/kg/injection, schedule: Q01DX009 (ip), vehicle: other) was 193 % of control; the T/C (dose: 4.5 mg/kg/injection, schedule: Q01DX009 (ip), vehicle: saline) was 188 % of control and 196 % of control; the T/C (dose: 6.25 mg/kg/injection, schedule: Q01DX005 (ip), vehicle: saline) is 159 % of control; the T/C (dose: 12.5 mg/kg/injection, schedule: Q01DX005 (ip), vehicle: saline) is 165 % of control and 172 % of control. The T/C (dose: 34.0 mg/kg/injection, schedule: Q01DX009 (ip), vehicle: saline) was 205 % of control.
Consider `CC(C)SC(=O)C=C(c1ccccc1)c1ccccc1`, for which the T/C is, setting by setting: under setting [11], 95 % of control; under setting [12], 96 % of control; under setting [13], 100 % of control.
Consider `COc1cc(OC)c(NC(=O)Nc2cc(Cl)ccc2Cl)cc1Cl`, for which the T/C is 94 % of control under setting [2] and 91 % of control under setting [9].
`NC(=O)c1nnn(Cc2ccccc2)c1N`: the T/C runs as follows: under setting [1], 119 % of control; under setting [2], 102 % of control; under setting [9], 109 % of control; under setting [10], 106 % of control; (dose: 400.0 mg/kg/injection, schedule: Q01DX009 (ip), vehicle: saline with Tween-80) 110 % of control.
In the case of `Cc1ccc(S(=O)(=O)N/N=C/c2c(Cl)nc3sccn23)cc1`, the T/C runs as follows: under setting [11], 111 % of control; under setting [12], 108 % of control; under setting [13], 111 % of control.
